“Also recorded” adds a separate entry of the source.
Legend:
[1] = Mouse Study II (protection from loss of mucosal permeability, oral iodixanol in plasma); format: in vivo, C57BI/6 female mice; conditions: day 7
Method: C57BI/6 female mice (n=7) were treated intraperitoneal (ip) with 100 mg/kg MTX on days 2, 3 and 4 with and without 60 mg/kg TK-112690 (ip) three hours before, and after, MTX injections. On day 7, mucosal barrier injury was estimated by measuring plasma concentrations of orally administered iodixanol determined by HPLC using UV detection (Boxplots with minimum and maximum values (black lines). Orally administered iodixanol is not absorbed absent an increase in mucosal permeability. Group 1=saline control, Group 2=MTX and Group 3=MTX+TK-112690.
The aim of this study was to evaluate the ability of a representative a 2,2′-anhydropyrimidine test article to mitigate MTX-induced loss of mucosal permeability. C57BI/6 female mice (n=7) were treated (ip) with 100 mg/kg MTX on days 2, 3 and 4 with and without 60 mg/kg TK-112690 (ip) three hours before, and after, MTX injections. On day 7, mucosal barrier injury was estimated by measuring plasma concentrations of orally administered iodixanol determined by HPLC using UV detection. Orally administered iodixanol is not absorbed absent an increase in mucosal permeability.

[2] = test system: AS283 cells; experiment: Cell Culture Study II (MTX cytotoxicity, CellTiter-Glo); format: cell-based, human; conditions: 72 hours
Method: In this study, AS283 cells were grown in RPMI-1640 supplemented with L-glutamine dipeptide, sodium pyruvate, HEPES, and 10% FBS. AS283 cells were used to seed three 96-well plates with 10,000 cells/well in a total volume of 50 μL. Medium alone wells were seeded 100 μL medium. Plates were incubated overnight. The following day, 25 μL of the TK-112690 and MTX stock solutions were added to the appropriate wells. TK-112690 was added first, followed by MTX in all wells. 25 μL of vehicle was added to TK-112690 alone wells. 25 μL of vehicle and 25 μL medium were added to vehicle control wells, and 50 μL medium was added to cell control wells. Cell viability was measured using CellTiter-Glo and DOX (10 μM) was used as a reference standard. The plates were incubated at 37° C., 5% CO2 for 72 hours then removed from the incubator and placed on the bench at room temperature for 30 min. The plates were not stacked or shaken. […] Luminescence was recorded on TriLux. […]
AS283 cells were grown in RPMI-1640 supplemented with L-glutamine dipeptide, sodium pyruvate, HEPES, and 10% FBS. […] Cell viability was measured using CellTiter-Glo and DOX (10 μM) was used as a reference standard.
The plates were incubated at 37° C., 5% CO2 for 72 hours then removed from the incubator and placed on the bench at room temperature for 30 min. […] Luminescence was recorded on TriLux.

[3] = test system: Wild-type (Oregon-R) Drosophila melanogaster; experiment: Fly Study II, MTX lethality in wild-type flies; format: in vivo
Method: (§1) Embryos of UPase knockout (19519) Drosophila melanogaster were orally exposed to a dose range of MTX doses in food admix. Embryos of Wild-type (Oregon-R) were orally exposed to the same dose range of MTX in presence and absence of 0.04 mg TK-112690. Scoring was based on life or death 15 days after initiation of MTX exposure. […] Wild-type D. melanogaster are sensitive to lethal effects of 0.1 mg MTX.
(§2) The aim of this study was to evaluate the lethal effects of a range (0.001, 0.01, 0.05, 0.1, 0.2, 0.4 mg) of doses of orally fed MTX in wild-type (Ore-R) and UPase mutant Drosophila melanogaster. Embryos of UPase knockout (19519) Drosophila melanogaster were orally exposed to a dose range of MTX (0.001, 0.01, 0.05, 0.1, 0.2, 0.4 mg) in food admix. Embryos of Wild-type (Oregon-R) were orally exposed to the same dose range of MTX in presence and absence of 0.04 mg TK-112690. Scoring was based on life or death 15 days after initiation of MTX exposure.

[4] = test system: UPase knockout (19519) Drosophila melanogaster; experiment: Fly Study II, MTX lethality in UPase knockout flies; format: in vivo
Method: as §1, §2

Row | Compound | mucosal barrier injury (increased plasma iodixanol) ([1]; 100 mg/kg MTX ip on Days 2, 3 and 4) | cytotoxicity to AS283 cancer cells ([2]; MTX 0.01-100 μM) | MTX dose lethal to wild-type flies ([3]; oral in food admix, 15 days after initiation of MTX exposure) | sensitivity of UPase knockout flies to lethal effects of MTX ([4]; MTX 0.001-0.4 mg oral, 15 days) | protection from MTX-induced mucosal barrier injury (plasma concentration of orally administered iodixanol) ([1]; 60 mg/kg ip 3 h before and after 100 mg/kg MTX, days 2, 3, 4, p<0.05) | effect of TK-112690 on MTX cytotoxicity (cell viability) ([2]; TK-112690 1, 10, 100 μM + MTX 0.01-100 μM) | sensitivity of wild-type flies to lethal effects of MTX in the presence of TK-112690 ([3]; 0.04 mg TK-112690, MTX 0.001-0.4 mg oral, 15 days) | methotrexate dose from whose lethality TK-112690 protects ([3]; 0.04 mg TK-112690, wild-type flies, 15 days) | added protection from methotrexate toxicities by TK-112690 in UPase mutant flies ([4]; UPase mutant flies, dose range of methotrexate)
1 | CN(Cc1cnc2nc(N)nc(N)c2n1)c1ccc(C(=O)N[C@@H](CCC(=O)O)C(=O)O)cc1 [MTX, N-[4-[[(2,4-diamino-6-pteridinyl)methyl]methylamino]benzoyl]-L-glutamic acid, reference compound] | experienced mucosal barrier injury | cytotoxic | 0.1 mg | resistant to lethal effects | – | – | – | – | –
2 | Cc1cn2c(nc1=O)O[C@H]1[C@H](O)[C@@H](CO)O[C@H]12 [TK-112690, 2,2′-anhydro-5-methyluridine] | – | – | – | – | protected mice from MTX-induced mucosal barrier injury | did not diminish the cytotoxicity of MTX; also recorded: no statistical difference | resistant to the lethal effects | ≤ 0.4 mg | does not provide added protection
